Test: Total indole concentrations under various light, O2 and EMIQ conditions
Format: physicochemical
Protocol: Synthetic R,R-monatin containing approximately 95.4% R,R-monatin monopotassium salt (dry basis) was obtained from CSIR (Modderfontein, South Africa). About 35 mg/L of this monatin was placed in a buffered solution at a pH of about 2.8-3.0 comprising 9 mM citric acid-trisodium citrate in high purity water and preserved with about 150 mg/L sodium benzoate. To some samples 200 ppm SANMELIN™ AO-3000 enzymatically modified isoquercitrin (EMIQ) (San-Ei Gen F.F.I.—Osaka, Japan) was added. Dissolved O2 levels were either increased by bubbling compressed air or reduced by bubbling N2 (99.9% purity) through these samples until the target O2 concentrations were achieved. Dissolved O2 levels were determined at 20° C. using a FOXY fluorescence quenching O2 analyzer from Ocean Optics (Dunedin, Fla.). Samples were stored in clear, glass ampules (˜10 mL) after O2 adjustment and heat-sealed to create an air-tight enclosure. The samples were then either stored in the dark, or exposed to light continuously (24 hours per day) in a light box (˜2200 lux light intensity) configured with a rotating carousel to provide even illumination. The source of light was provided by ultra-violet (UV) light wavelength transmitting bulbs and standard fluorescent bulbs. The heat produced by the lights warmed the samples to a temperature of about 28° C. Duplicate samples of each treatment were analyzed weekly for total indole concentrations via the following method.
Total indole (monatin and its intramolecular rearrangement products, monatin lactone and monatin lactam) concentrations were quantified by reversed phase HPLC at 40° C. using an Agilent Zorbax Eclipse C18 column with UV detection at 280 nm by PDA. The compounds were eluted by a gradient mobile phase consisting of (A) 1:1 methanol and acetonitrile (v:v) with 0.3% formic acid and 10 mM ammonium formate and (B) 0.3% formic acid in water with 10 mM ammonium formate. The integrated peak areas for the three (3) compounds were expressed in terms of monatin concentration (mg/L) based on a standard curve prepared for monatin. Thus, the extinction coefficient for monatin was applied to estimate concentrations of monatin lactone and monatin lactam since standards for these compounds were unavailable.

NC(CC(O)(Cc1c[nH]c2ccccc12)C(=O)O)C(=O)O (stereo not shown) [R,R-monatin, 2-hydroxy-2-(indol-3-ylmethyl)-4-aminoglutaric acid]
Total Indole Concentration (Light Exposure NO, O2 8.3 mg/L, EMIQ 0 ppm, 0 Days): 36.3 mg/L
Total Indole Concentration (Light Exposure NO, O2 8.3 mg/L, EMIQ 0 ppm, 7 Days): 36.5 mg/L
Total Indole Concentration (Light Exposure NO, O2 8.3 mg/L, EMIQ 0 ppm, 14 Days): 37.0 mg/L
Total Indole Concentration (Light Exposure NO, O2 8.3 mg/L, EMIQ 0 ppm, 21 Days): 41.0 mg/L
Total Indole Concentration (Light Exposure NO, O2 8.3 mg/L, EMIQ 0 ppm, 28 Days): 37.5 mg/L
Total Indole Concentration (Light Exposure NO, O2 8.3 mg/L, EMIQ 200 ppm, 0 Days): 35.5 mg/L
Total Indole Concentration (Light Exposure NO, O2 8.3 mg/L, EMIQ 200 ppm, 7 Days): 35.3 mg/L
Total Indole Concentration (Light Exposure NO, O2 8.3 mg/L, EMIQ 200 ppm, 14 Days): 43.3 mg/L
Total Indole Concentration (Light Exposure NO, O2 8.3 mg/L, EMIQ 200 ppm, 21 Days): 36.2 mg/L
Total Indole Concentration (Light Exposure NO, O2 8.3 mg/L, EMIQ 200 ppm, 28 Days): 33.5 mg/L
Total Indole Concentration (Light Exposure NO, O2 <0.5 mg/L, EMIQ 0 ppm, 0 Days): 34.7 mg/L
Total Indole Concentration (Light Exposure NO, O2 <0.5 mg/L, EMIQ 0 ppm, 7 Days): 32.8 mg/L
Total Indole Concentration (Light Exposure NO, O2 <0.5 mg/L, EMIQ 0 ppm, 14 Days): 34.4 mg/L
Total Indole Concentration (Light Exposure NO, O2 <0.5 mg/L, EMIQ 0 ppm, 21 Days): 32.8 mg/L
Total Indole Concentration (Light Exposure NO, O2 <0.5 mg/L, EMIQ 0 ppm, 28 Days): 35.2 mg/L
Total Indole Concentration (Light Exposure NO, O2 <0.5 mg/L, EMIQ 200 ppm, 0 Days): 34.7 mg/L
Total Indole Concentration (Light Exposure NO, O2 <0.5 mg/L, EMIQ 200 ppm, 7 Days): 32.8 mg/L
Total Indole Concentration (Light Exposure NO, O2 <0.5 mg/L, EMIQ 200 ppm, 14 Days): 34.4 mg/L
Total Indole Concentration (Light Exposure NO, O2 <0.5 mg/L, EMIQ 200 ppm, 21 Days): 32.8 mg/L
Total Indole Concentration (Light Exposure NO, O2 <0.5 mg/L, EMIQ 200 ppm, 28 Days): 35.2 mg/L
Total Indole Concentration (Light Exposure YES, O2 8.3 mg/L, EMIQ 0 ppm, 0 Days): 36.3 mg/L
Total Indole Concentration (Light Exposure YES, O2 8.3 mg/L, EMIQ 0 ppm, 7 Days): 15.3 mg/L
Total Indole Concentration (Light Exposure YES, O2 8.3 mg/L, EMIQ 0 ppm, 14 Days): 4.5 mg/L
Total Indole Concentration (Light Exposure YES, O2 8.3 mg/L, EMIQ 0 ppm, 21 Days): 0.0 mg/L
Total Indole Concentration (Light Exposure YES, O2 8.3 mg/L, EMIQ 0 ppm, 28 Days): 0.0 mg/L
Total Indole Concentration (Light Exposure YES, O2 8.3 mg/L, EMIQ 200 ppm, 0 Days): 34.7 mg/L
Total Indole Concentration (Light Exposure YES, O2 8.3 mg/L, EMIQ 200 ppm, 7 Days): 32.7 mg/L
Total Indole Concentration (Light Exposure YES, O2 8.3 mg/L, EMIQ 200 ppm, 14 Days): 28.4 mg/L
Total Indole Concentration (Light Exposure YES, O2 8.3 mg/L, EMIQ 200 ppm, 21 Days): 26.0 mg/L
Total Indole Concentration (Light Exposure YES, O2 8.3 mg/L, EMIQ 200 ppm, 28 Days): 22.5 mg/L
Total Indole Concentration (Light Exposure YES, O2 <0.5 mg/L, EMIQ 0 ppm, 0 Days): 36.3 mg/L
Total Indole Concentration (Light Exposure YES, O2 <0.5 mg/L, EMIQ 0 ppm, 7 Days): 35.9 mg/L
Total Indole Concentration (Light Exposure YES, O2 <0.5 mg/L, EMIQ 0 ppm, 14 Days): 36.0 mg/L
Total Indole Concentration (Light Exposure YES, O2 <0.5 mg/L, EMIQ 0 ppm, 21 Days): 38.8 mg/L
Total Indole Concentration (Light Exposure YES, O2 <0.5 mg/L, EMIQ 0 ppm, 28 Days): 34.6 mg/L
Total Indole Concentration (Light Exposure YES, O2 <0.5 mg/L, EMIQ 200 ppm, 0 Days): 34.7 mg/L
Total Indole Concentration (Light Exposure YES, O2 <0.5 mg/L, EMIQ 200 ppm, 7 Days): 35.8 mg/L
Total Indole Concentration (Light Exposure YES, O2 <0.5 mg/L, EMIQ 200 ppm, 14 Days): 33.9 mg/L
Total Indole Concentration (Light Exposure YES, O2 <0.5 mg/L, EMIQ 200 ppm, 21 Days): 35.1 mg/L
Total Indole Concentration (Light Exposure YES, O2 <0.5 mg/L, EMIQ 200 ppm, 28 Days): 29.3 mg/L
